# Test results from patent publication US12187705B2, “Heteroaryl-triazole and heteroaryl-tetrazole compounds as pesticides” (Bayer Aktiengesellschaft, priority 2018, dated 2025).
# Tests used:
# Assay type in all cases: in vivo
# Tetranychus urticae = Tetranychus urticae spray test OP-resistant; settings: French bean leaf disks, after 6 days; for mortality at 500 g/ha: Tetranychus urticae, foliar, 144 h; for mortality: 500 g/ha
# Description: Tetranychus urticae—Spray Test OP-Resistant
# (§1) To produce a suitable preparation of active compound, 1 part by weight of active compound is mixed with the stated amount of solvents and is diluted with water, containing an emulsifier concentration of 1000 ppm, to the desired concentration. Further test concentrations are prepared by dilution with emulsifier containing water.
# French bean (Phaseolus vulgaris) leaf disks infected with all instars of the two spotted spidermite (Tetranychus urticae), are sprayed with a preparation of the active ingredient of the desired concentration.
# After 6 days mortality in % is determined. 100% means all spider mites have been killed and 0% means none of the spider mites have been killed.
# Myzus persicae [1] = test: Myzus persicae oral test; settings: 120 h
# Method in brief: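 Feeding test: compound diluted in water was combined with IPL41 insect medium (33%+15% sugar) under a parafilm seal. A mixed population of green peach aphids fed through the membrane. Mortality (%) was scored after 5 days.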
# Diabrotica balteata = Diabrotica balteata spray test; settings: 160 μg/well, wheat seeds, after 7 days; for pest or weed control at 160 µg/disc, 160 µg/well: Diabrotica balteata, 168 h, read-out: efficacy (seedlings grown)
# Method in brief: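 Efficacy (%) read 7 days after infesting treated seedlings with 10-20 banded cucumber beetle larvae, 100% meaning growth as in uninfected untreated control and 0% no growth. Test solutions in water containing 1000 ppm emulsifier were sprayed onto wheat seeds germinated for 1 day on agar.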
# Nezara viridula = Nezara viridula spray test; settings: in Hordeum vulgare, 96 h
# Method in brief: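 Barley plants infested with stink bug larvae were sprayed with compound diluted in water containing 1000 ppm emulsifier. Mortality (%) was scored after 4 days, 100% meaning all bugs killed.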
# Spodoptera frugiperda = Spodoptera frugiperda spray test; settings: in Zea mays, 168 h
# Method in brief: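 Percent larval kill read at day 7 on Zea mays leaf pieces that were spray-treated and, after drying, infested. Spray preparations made by dilution with emulsifier-containing water (1000 ppm).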
# Ctenocephalides felis [2] = test: Ctenocephalides felis in-vitro contact test adult cat flea; settings: 5 μg/cm^2 (=500 g/ha), after 48 hours; for pest or weed control at 5 µg/cm2, 5 µg/cm2: Ctenocephalides felis, read-out: efficacy (fleas dead or moribund)
# Method in brief: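 Efficacy (% dead or moribund) was scored 48 h after adult Ctenocephalides felis were confined in tubes coated with the acetone-applied compound (900 ppm, 5 μg/cm^2). Moribund status was judged by failure to escape a 45-50° C heating plate within 5 minutes.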
# Nilaparvata lugens = Nilaparvata lugens spray test; settings: Nilaparvata lugens, in Oryza sativa, 96 h
# Method in brief: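 Rice plants sprayed with compound diluted in water containing 1000 ppm emulsifier, then infested with brown planthopper. Mortality (%) scored after 4 days, 100% meaning all insects killed.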
# Phaedon cochleariae = Phaedon cochleariae spray test; settings: foliar, 168 h, Chinese cabbage leaf disks, after 7 days
# Description: Phaedon cochleariae—Spray Test
# as §1
# Chinese cabbage (Brassica pekinensis) leaf disks are sprayed with a preparation of the active ingredient of the desired concentration. Once dry, the leaf disks are infested with mustard beetle larvae (Phaedon cochleariae).
# After 7 days mortality in % is determined. 100% means all beetle larvae have been killed and 0% means none of the beetle larvae have been killed.
# Ctenocephalides felis [3] = test: Ctenocephalides felis oral test; settings: for mortality at 100 ppm: Ctenocephalides felis, in Bos taurus, po, 48 h
# Method in brief: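 About 20 adult unfed fleas fed through parafilm on cattle blood containing compound (DMSO concentrate diluted in blood); blood held at 37° C., fleas at room temperature. Mortality in % scored after 2 days (100% = all killed).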
# Boophilus microplus = Boophilus microplus injection test; settings: 20 μg/animal, egg deposition after 7 days; for pest or weed control at 0.02 mg: Rhipicephalus microplus, 168 h, read-out: efficacy (infertile eggs)
# Method in brief: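 Efficacy expresses the share of infertile eggs (100% all infertile, 0% all fertile), judged at 7 days or at hatching around day 42. Five adult engorged females were each injected abdominally with 1 μl of DMSO compound solution and incubated in a climate chamber.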
# Rhipicephalus sanguineus = Rhipicephalus sanguineus in-vitro contact test with adult brown dog ticks; settings: 5 μg/cm^2 (=500 g/ha), after 48 hours
# Description: Rhipicephalus sanguineus—In-Vitro Contact Test with Adult Brown Dog Ticks
# 9 mg compound is solved in 1 ml acetone and diluted with acetone to the desired concentration. 250 μl of the test solution is filled in 25 ml glass test tubes and homogeneously distributed on the inner walls by rotation and tilting on a shaking device (2 h at 30 rpm). With a compound concentration of 900 ppm, an inner surface of 44.7 cm^2 and a homogeneous distribution, a dose of 5 μg/cm^2 is achieved.
# After the solvent has evaporated, each test tube is filled with 5-10 adult brown dog ticks (Rhipicephalus sanguineus), closed with a perforated lid and incubated in a lying position at room temperature and relative humidity. After 48 hours efficacy is determined. The ticks are patted on the ground of the tubes and are incubated on a heating plate at 45-50° C. for at most 5 minutes. Immotile or uncoordinated moving ticks, which are not able to escape the heat by climbing upwards, are marked as dead or moribund.
# An efficacy of 100% means all ticks are dead or moribund; 0% means no ticks are dead or moribund.
# [4] = test system: cattle ticks (Boophilus microplus) strane Parhurst, SP-resistant; test: Boophilus microplus dip test; settings: 100 ppm, egg deposition after 7 days
# Description: Boophilus microplus—Dip Test
# Test animal: cattle ticks (Boophilus microplus) strane Parhurst, SP-resistant
# Solvent: dimethyl sulfoxide
# To produce a suitable preparation of active compound, 10 mg of active compound are dissolved in 0.5 ml solvent, and the concentrate is diluted with water to the desired concentration.
# This compound solution is pipetted into tubes. 8-10 engorged, adult, female cattle ticks (Boophilus microplus) are placed in perforated tubes. These tubes are immersed in the aqueous compound solution until the ticks are completely moistened. After the liquid has drained off, the ticks are transferred to a filter paper in a plastic tray and stored in a climate chamber.
# After 7 days egg deposition of fertile eggs is monitored. Eggs where fertility is not visible are stored in a climate chamber till hatching after about 42 days. An efficacy of 100% means all eggs are infertile; 0% means all eggs are fertile.
# [5] = test system: Aedes aegypti strain MONHEIM; test: Aedes aegypti test (AEDSAE surface treatment & contact assay); settings: 24 hours after contact, read-out: efficacy (mortality); for mortality at 4 mg/m2: surface concentration 4 mg/m^2, 30 minutes exposure; for mortality at 20 mg/m2: surface concentration 20 mg/m^2, 30 minutes exposure
# Method in brief: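 Compound dissolved in acetone (2 mg/ml) with 2000 ppm rapeseed oil methyl ester and dried onto a glazed tile. Adult mosquitoes held on the treated surface for 30 minutes exposure. Percent mortality scored 24 hours after contact.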
# [6] = test system: Culex quinquefasciatus strain P00; test: Culex quinquefasciatus test (CULXFA surface treatment & contact assay); settings: 24 hours after contact, read-out: efficacy (mortality); for mortality at 4 mg/m2: surface concentration 4 mg/m^2, 30 minutes exposure; for mortality at 20 mg/m2: surface concentration 20 mg/m^2, 30 minutes exposure
# Method in brief: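 Compound dissolved in acetone (2 mg/ml) with 2000 ppm rapeseed oil methyl ester, applied to glazed tile and dried. Adult strain P00 mosquitoes exposed to the surface for 30 minutes. Percent mortality scored 24 hours after contact.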
# Myzus persicae [7] = test: Myzus persicae spray test; settings: in Brassica rapa, foliar, 120 h
# Method in brief: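 Percent kill was recorded 5 days after spraying. Test solutions, prepared with solvent and diluted in 1000 ppm emulsifier water, were applied to Brassica pekinensis leaf disks carrying mixed-instar green peach aphids.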
SMILES,mortality at 4 ppm (Myzus persicae [1]) [%],mortality at 20 ppm (Myzus persicae [1]) [%],"pest or weed control at 160 µg/disc, 160 µg/well (Diabrotica balteata) [%]",mortality at 500 g/ha (Nezara viridula) [%],mortality at 500 g/ha (Spodoptera frugiperda) [%],"pest or weed control at 5 µg/cm2, 5 µg/cm2 (Ctenocephalides felis [2]) [%]",mortality at 500 g/ha (Nilaparvata lugens) [%],mortality at 500 g/ha (Phaedon cochleariae) [%],mortality at 100 ppm (Ctenocephalides felis [3]) [%],pest or weed control at 0.02 mg (Boophilus microplus) [%],efficacy (infertile eggs) [4] [%],efficacy (seedlings grown) (Diabrotica balteata) [%],efficacy (infertile eggs) (Boophilus microplus) [%],efficacy (fleas dead or moribund) (Ctenocephalides felis [2]) [%],further results
"CC(c1ncnn1-c1ncccn1)N(CC1CC1)C(=O)c1cccc(S(=O)(=O)C(F)(F)F)c1 (centres unmarked) [Example I-005, N-(cyclopropylmethyl)-N-{1-[1-(pyrimidin-2-yl)-1H-1,2,4-triazol-5-yl]ethyl}-3-[(trifluoromethyl)sulfonyl]benzamide]",90,100,100,100,100,90,100,100,–,–,–,–,–,–,mortality at 500 g/ha (Tetranychus urticae): 80%
CC(c1ncnn1-c1ncccn1)N(CC1CC1)C(=O)c1cncc(S(=O)(=O)C(F)(F)F)c1 (centres unmarked) [Example I-006],90,100,100,100,–,90,100,100,100,100,–,–,–,–,"mortality at 500 g/ha (Tetranychus urticae): 95%; pest or weed control at 5 µg/cm2, 5 µg/cm2 (Rhipicephalus sanguineus; Rhipicephalus sanguineus, read-out: efficacy (ticks dead or moribund)): 80%"
CC(c1ncnn1-c1ncccn1)N(CC1CC1)C(=O)c1cc(C2CC2)cc(C(F)(F)F)c1 (centres unmarked) [Example I-008],100,100,100,100,100,–,100,100,–,–,–,–,–,–,mortality at 500 g/ha (Tetranychus urticae): 95%
"CC(NC(=O)c1cc(Cl)cc(S(C)(=O)=O)c1)c1ncnn1-c1ncccn1 (centres unmarked) [Example I-020, 3-chloro-5-(methylsulfonyl)-N-{1-[1-(pyrimidin-2-yl)-1H-1,2,4-triazol-5-yl]ethyl}benzamide]",100,100,100,100,–,100,100,100,100,100,100,–,–,–,–
Cc1nc(C(C)NC(=O)c2cc(Cl)cc(S(C)(=O)=O)c2)n(-c2ncccn2)n1 (centres unmarked) [Example I-034],–,–,–,–,–,–,–,–,–,–,100,100,100,100,efficacy (ticks dead or moribund) (Rhipicephalus sanguineus): 80%
CC(NC(=O)c1cc(Cl)cc(S(C)(=O)=O)c1)c1ncnn1-c1ccc(C#N)cn1 (centres unmarked) [Example I-035],–,–,–,–,–,–,–,–,–,–,100,100,100,100,–
CC(NC(=O)c1cc(Cl)cc(S(C)(=O)=O)c1)c1ncnn1-c1ncc(F)cn1 (centres unmarked) [Example I-036],–,–,–,–,–,–,–,–,–,–,90,100,100,100,efficacy (ticks dead or moribund) (Rhipicephalus sanguineus): 80%
C[C@@H](NC(=O)c1cc(Cl)cc(S(C)(=O)=O)c1)c1ncnn1-c1ncc(Cl)cn1 [Example I-038],100,–,–,100,100,100,–,–,100,100,100,–,–,–,mortality at 4 mg/m2 [5]: 80 to 100%; mortality at 20 mg/m2 [5]: 90 to 100%; mortality at 4 mg/m2 [6]: 80 to 100%; mortality at 20 mg/m2 [6]: 80 to 100%
"CCS(=O)(=O)c1cc(Cl)cc(C(=O)N[C@@H](C)c2ncnn2-c2ncccn2)c1 [Example I-044, 3-chloro-5-(ethylsulfonyl)-N-{(1S)-1-[1-(pyrimidin-2-yl)-1H-1,2,4-triazol-5-yl]ethyl}benzamide]",100,–,100,100,83,100,100,–,100,100,100,–,–,–,mortality at 4 mg/m2 [5]: 80 to 100%; mortality at 20 mg/m2 [5]: 90 to 100%; mortality at 4 mg/m2 [6]: 80 to 100%; mortality at 20 mg/m2 [6]: 80 to 100%; mortality at 500 g/ha (Myzus persicae [7]): 100%
"CC(C)Sc1cc(Cl)cc(C(=O)N[C@@H](C)c2ncnn2-c2ncccn2)c1 [Example I-046, 3-chloro-5-(isopropylsulfanyl)-N-{(1S)-1-[1-(pyrimidin-2-yl)-1H-1,2,4-triazol-5-yl]ethyl}benzamide]",100,–,–,100,100,100,90,–,100,100,100,–,–,–,mortality at 20 mg/m2 [5]: 90 to 100%; mortality at 20 mg/m2 [6]: 80 to 100%; mortality at 500 g/ha (Myzus persicae [7]): 100%
CC(NC(=O)c1cc(Cl)cc(C2CC2)c1)c1ncnn1-c1ncccn1 (centres unmarked) [Example I-050],–,–,–,–,–,–,–,–,–,–,90,80,100,100,–
CC(NC(=O)c1ccc(S(=O)(=O)C(F)(F)F)cc1)c1ncnn1-c1ncccn1 (centres unmarked) [Example I-056],–,–,–,–,–,–,–,–,–,–,–,–,–,–,"mortality (Tetranychus urticae): 90%; mortality (Ctenocephalides felis [3]; 100 ppm in cattle blood, after 2 days): 90%"
CC(NC(=O)c1cncc(-c2ccc(Cl)cc2)c1)c1ncnn1-c1ncccn1 (centres unmarked) [Example I-112],–,–,–,–,–,–,–,–,–,–,–,–,–,–,mortality (Tetranychus urticae): 90%
